Laboratory results reported in PubChem BioAssay AID2060887 (Molecular Pharmacology Branch, DTP, NCI, 2025).
Blank lines part the entries; values can stand above or below the compound they belong to.

System: 782815-120-R-J1-PDC complex spheroid viability
Test: Anticancer human tumor 782815-120-R-J1-PDC patient-derived colon adenocarcinoma cell line growth inhibition [RAS]
Conditions: for IC50: curve of first compound; for viability, T/C: stronger effect = lower value
Outline: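 Agents were tested in combination matrices in half-log decrements from a top concentration at or near clinical Cmax (10 microM if undetermined). Targets were multi-cell spheroids of tumour lines plus HUVEC and MSC stromal cells.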

[1] = second compound 0.000949 µM, first compound 0.0316 µM
[2] = second compound 0.000949 µM, first compound 0.1 µM
[3] = second compound 0.000949 µM, first compound 0.316 µM
[4] = second compound 0.000949 µM, first compound 1 µM
[5] = second compound 0.003 µM, first compound 0.0316 µM
[6] = second compound 0.003 µM, first compound 0.1 µM
[7] = second compound 0.003 µM, first compound 0.316 µM
[8] = second compound 0.003 µM, first compound 1 µM
[9] = second compound 0.00949 µM, first compound 0.0316 µM
[10] = second compound 0.00949 µM, first compound 0.1 µM
[11] = second compound 0.00949 µM, first compound 0.316 µM
[12] = second compound 0.00949 µM, first compound 1 µM
[13] = second compound 0.03 µM, first compound 0.0316 µM
[14] = second compound 0.03 µM, first compound 0.1 µM
[15] = second compound 0.03 µM, first compound 0.316 µM
[16] = second compound 0.03 µM, first compound 1 µM
[17] = second compound 0.0949 µM, first compound 0.0316 µM
[18] = second compound 0.0949 µM, first compound 0.1 µM
[19] = second compound 0.0949 µM, first compound 0.316 µM
[20] = second compound 0.0949 µM, first compound 1 µM
[21] = second compound 0.3 µM, first compound 0.0316 µM
[22] = second compound 0.3 µM, first compound 0.1 µM
[23] = second compound 0.3 µM, first compound 0.316 µM
[24] = second compound 0.3 µM, first compound 1 µM
[25] = second compound 0.000949 µM, first compound 3.16 µM
[26] = second compound 0.000949 µM, first compound 10 µM
[27] = second compound 0.003 µM, first compound 3.16 µM
[28] = second compound 0.003 µM, first compound 10 µM
[29] = second compound 0.00949 µM, first compound 3.16 µM
[30] = second compound 0.00949 µM, first compound 10 µM
[31] = second compound 0.03 µM, first compound 3.16 µM
[32] = second compound 0.03 µM, first compound 10 µM
[33] = second compound 0.0949 µM, first compound 3.16 µM
[34] = second compound 0.0949 µM, first compound 10 µM
[35] = second compound 0.3 µM, first compound 3.16 µM
[36] = second compound 0.3 µM, first compound 10 µM
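Further: spheroids exposed to compounds for 7 days before reading.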
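Wherever viability, T/C is given: 100% = DMSO vehicle control viability.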

IC50 (second compound 0.000949 µM): > 1000 nM
IC50 (second compound 0.003 µM): > 1000 nM
IC50 (second compound 0.00949 µM): < 3.16 nM
IC50 (second compound 0.03 µM): < 3.16 nM
IC50 (second compound 0.0949 µM): < 3.16 nM
IC50 (second compound 0.3 µM): < 3.16 nM
Compound: CCN1CCN(Cc2ccc(Nc3ncc(F)c(-c4cc(F)c5nc(C)n(C(C)C)c5c4)n3)nc2)CC1 + CCn1c(-c2cc(N3CCN(C)CC3)cnc2C(C)OC)c2c3cc(ccc31)-c1csc(n1)CC(NC(=O)C1CC1C)C(=O)N1CCCC(N1)C(=O)OCC(C)(C)C2
viability, T/C (second compound 0.000949 µM, first compound 0.00316 µM): 75.8%
viability, T/C (second compound 0.000949 µM, first compound 0.01 µM): 88%
viability, T/C [1]: 92.3%
viability, T/C [2]: 84.9%
viability, T/C [3]: 94.6%
viability, T/C [4]: 114%
viability, T/C (second compound 0.003 µM, first compound 0.00316 µM): 58.6%
viability, T/C (second compound 0.003 µM, first compound 0.01 µM): 59.5%
viability, T/C [5]: 57.9%
viability, T/C [6]: 59.7%
viability, T/C [7]: 62.6%
viability, T/C [8]: 64%
viability, T/C (second compound 0.00949 µM, first compound 0.00316 µM): 34.3%
viability, T/C (second compound 0.00949 µM, first compound 0.01 µM): 36.4%
viability, T/C [9]: 34.4%
viability, T/C [10]: 39.4%
viability, T/C [11]: 34.8%
viability, T/C [12]: 32.5%
viability, T/C (second compound 0.03 µM, first compound 0.00316 µM): 20.2%
viability, T/C (second compound 0.03 µM, first compound 0.01 µM): 21.9%
viability, T/C [13]: 18.5%
viability, T/C [14]: 18%
viability, T/C [15]: 20.3%
viability, T/C [16]: 20.8%
viability, T/C (second compound 0.0949 µM, first compound 0.00316 µM): 15.2%
viability, T/C (second compound 0.0949 µM, first compound 0.01 µM): 15.7%
viability, T/C [17]: 14.5%
viability, T/C [18]: 17%
viability, T/C [19]: 19.3%
viability, T/C [20]: 17.1%
viability, T/C (second compound 0.3 µM, first compound 0.00316 µM): 15.6%
viability, T/C (second compound 0.3 µM, first compound 0.01 µM): 14.8%
viability, T/C [21]: 13.6%
viability, T/C [22]: 13.3%
viability, T/C [23]: 13.2%
viability, T/C [24]: 18.2%

IC50 (second compound 0.000949 µM): > 10000 nM
IC50 (second compound 0.003 µM): > 10000 nM
IC50 (second compound 0.00949 µM): < 31.6 nM
IC50 (second compound 0.03 µM): < 31.6 nM
IC50 (second compound 0.0949 µM): < 31.6 nM
IC50 (second compound 0.3 µM): < 31.6 nM
Compound: Cc1nc(N2CCC3(CC2)COC(C)C3N)c(CO)nc1Sc1ccnc(N)c1Cl (stereo unspecified) + CCn1c(-c2cc(N3CCN(C)CC3)cnc2C(C)OC)c2c3cc(ccc31)-c1csc(n1)CC(NC(=O)C1CC1C)C(=O)N1CCCC(N1)C(=O)OCC(C)(C)C2
viability, T/C [1]: 73.5%
viability, T/C [2]: 79.3%
viability, T/C [3]: 74.7%
viability, T/C [4]: 73%
viability, T/C [25]: 69.4%
viability, T/C [26]: 69.9%
viability, T/C [5]: 58.5%
viability, T/C [6]: 54.6%
viability, T/C [7]: 56%
viability, T/C [8]: 49%
viability, T/C [27]: 58.4%
viability, T/C [28]: 49%
viability, T/C [9]: 29.1%
viability, T/C [10]: 28.2%
viability, T/C [11]: 24.1%
viability, T/C [12]: 32.1%
viability, T/C [29]: 30.3%
viability, T/C [30]: 28.3%
viability, T/C [13]: 17.8%
viability, T/C [14]: 19%
viability, T/C [15]: 18.6%
viability, T/C [16]: 18.5%
viability, T/C [31]: 22.9%
viability, T/C [32]: 19.3%
viability, T/C [17]: 15.9%
viability, T/C [18]: 17%
viability, T/C [19]: 14.5%
viability, T/C [20]: 15.5%
viability, T/C [33]: 17.3%
viability, T/C [34]: 15.4%
viability, T/C [21]: 14.3%
viability, T/C [22]: 13.8%
viability, T/C [23]: 15.9%
viability, T/C [24]: 16.4%
viability, T/C [35]: 21.3%
viability, T/C [36]: 18.6%

IC50 (second compound 0.000949 µM): > 10000 nM
IC50 (second compound 0.003 µM): 1660 nM
IC50 (second compound 0.00949 µM): < 31.6 nM
IC50 (second compound 0.03 µM): < 31.6 nM
IC50 (second compound 0.0949 µM): < 31.6 nM
IC50 (second compound 0.3 µM): < 31.6 nM
Compound: NC1c2ccccc2OC12CCN(c1cnc3c(N4CCCc5ncccc54)n[nH]c3n1)CC2 (stereo unspecified) + CCn1c(-c2cc(N3CCN(C)CC3)cnc2C(C)OC)c2c3cc(ccc31)-c1csc(n1)CC(NC(=O)C1CC1C)C(=O)N1CCCC(N1)C(=O)OCC(C)(C)C2
viability, T/C [1]: 74.5%
viability, T/C [2]: 74.1%
viability, T/C [3]: 73.3%
viability, T/C [4]: 67.9%
viability, T/C [25]: 78.7%
viability, T/C [26]: 67.8%
viability, T/C [5]: 50.3%
viability, T/C [6]: 53.9%
viability, T/C [7]: 56.5%
viability, T/C [8]: 47.6%
viability, T/C [27]: 49.1%
viability, T/C [28]: 44%
viability, T/C [9]: 26.1%
viability, T/C [10]: 33.1%
viability, T/C [11]: 23.6%
viability, T/C [12]: 23.7%
viability, T/C [29]: 24.4%
viability, T/C [30]: 21.2%
viability, T/C [13]: 15.9%
viability, T/C [14]: 17.1%
viability, T/C [15]: 18.2%
viability, T/C [16]: 16.2%
viability, T/C [31]: 18.7%
viability, T/C [32]: 14.6%
viability, T/C [17]: 16.4%
viability, T/C [18]: 17.4%
viability, T/C [19]: 18.8%
viability, T/C [20]: 20.6%
viability, T/C [33]: 18.8%
viability, T/C [34]: 13.6%
viability, T/C [21]: 16.4%
viability, T/C [22]: 15.7%
viability, T/C [23]: 17.6%
viability, T/C [24]: 16.4%
viability, T/C [35]: 19.1%
viability, T/C [36]: 11.8%
